ChEMBL document CHEMBL1156829 (Proc Natl Acad Sci U S A, 2008)
Numbered stars: 1 amine (or outer) side, 2 acyl side, 3 side chain; on linkers, the order of the positions; unused ones are H or OH. Bridge positions count the residues as written; N and C are the ends. Square brackets hold non-standard residues; d marks the D form. Peptide text beside a SMILES is read from it. I, II: the chains in the order shown. ξ: configuration not given here. Actinocin(9to1) = Cc1c2oc3c(C)ccc(C(=O)[*:1])c3nc-2c(C(=O)[*:2])c(N)c1=O; ξNMeV = CNC(C(=O)O)C(C)C; ξT = CC(O)C(N)C(=O)O; ξP = O=C(O)C1CCCN1; Sar = CNCC(=O)O

How the values were obtained:
Plasmodium falciparum [1] = test: NOVARTIS: Inhibition of Plasmodium falciparum 3D7 (drug-susceptible) proliferation in erythrocyte-based infection assay; format: functional, organism-based; conditions: Plasmodium falciparum, 3D7
Plasmodium falciparum [2] = test: NOVARTIS: Inhibition of Plasmodium falciparum W2 (drug-resistant) proliferation in erythrocyte-based infection assay; format: functional, organism-based; conditions: Plasmodium falciparum, W2; read-out: EC50
[3] = NOVARTIS: Cytotoxicity against human hepatocellular carcinoma cell line (Huh7); format: toxicity, cell-based, Huh-7; conditions: Huh7 cells (hepatocellular carcinoma cell line)

Structure (SMILES)	EC50 (Plasmodium falciparum [1])	EC50 (Plasmodium falciparum [2])	CC50 [3]
Cc1cccc2cc(CNC3CCOC(C)(C)C3)c(N3CCCC3)nc12 (stereo not given)	21.4 nM	39.7 nM	39000 nM
C[n+]1cccc(CNC2=C(Cl)C(=O)c3ccccc3C2=O)c1	127 nM	213 nM	> 10000 nM
CCN(CC)C(=O)c1ccc2c(=O)n(Cc3cccc(Br)c3)c(=S)[nH]c2c1	> 1250 nM	1020 nM	> 10000 nM
Cc1oc2c(c1C(=O)NCC1CCCO1)C(=O)c1ccccc1C2=O (stereo not given)	1180 nM	481 nM	6930 nM
Clc1ccc2c(c1)c(-c1ccccc1)nc1nnnn12	> 1250 nM	> 1180 nM	> 10000 nM
CCC(=O)N1CCc2cc(Br)cc(S(=O)(=O)N3CCN(CC)CC3)c21	> 1630 nM	> 744 nM	> 10000 nM
CN(C)c1cc[n+](CC(=O)Nc2ccc(Cl)cc2)cc1	549 nM	897 nM	> 100000 nM
CCC(C)OC(=O)C1=C(C)NC2=C(C(=O)CC(c3ccc(OC)cc3)C2)C1c1ccc(O)cc1 (stereo not given)	500 nM	31.2 nM	> 100000 nM
CCOC(=O)c1c(NC(=O)CSc2nnc(CNC(=O)c3cccc(OC)c3)n2C2CCCCC2)sc2c1CCCC2	> 295 nM	> 1670 nM	> 10000 nM
COC(=O)c1cn([C@@H]2C[C@@H](C(=O)NCc3cccc(C(F)(F)F)c3)N(C3CCN(Cc4ccccc4)CC3)C2)nn1	1520 nM	1980 nM	> 100000 nM
COc1ccc(NC(=O)c2cnn(-c3ccccc3)c2NC(=O)c2ccco2)cc1	8000 nM	3230 nM	> 100000 nM
COC(=O)c1c(S(=O)(=O)NCc2cccc(Cl)c2)sc2c1CCN(C(=O)C1CCCO1)C2 (stereo not given)	> 608 nM	> 360 nM	> 10000 nM
CCC(C)NC(=O)c1nn(-c2cccc(OC)c2)c(=O)c2ccccc12 (stereo not given)	1970 nM	3810 nM	> 100000 nM
COC(=O)C1=C(C)N(C)C(C)=C(C(=O)OC)C1c1ccc([N+](=O)[O-])cc1	633 nM	2260 nM	> 100000 nM
C#CCNC(=O)c1ccc(OC2CCN(CC3CCCCC3)CC2)c(Cl)c1	499 nM	396 nM	> 100000 nM
Cc1ccccc1OCCSc1nc2ccc(NC(=O)c3ccccc3)cc2s1	9760 nM	> 7470 nM	> 100000 nM
CC(C)(C)CC(C)(C)Nc1c(-c2ccccc2OC(=O)c2ccccc2Cl)nc2ccccn12	822 nM	58.8 nM	> 10000 nM
OCCNc1nc(Nc2cccc(O)c2)nc2ccccc12	203 nM	1010 nM	69400 nM
Cc1ccc(CN=C(N)Nc2nc(C)cc(C)n2)cc1	653 nM	609 nM	11200 nM
CC(=O)N(C=C1Sc2ccccc2C1=O)c1ccc(C)cc1	10700 nM	1970 nM	> 100000 nM
CCN1C(=S)NC2c3cc(C)ccc3OC13CCCC23 (stereo not given)	164 nM	111 nM	> 100000 nM
O=C(NCCc1nc(-c2cccnc2)n[nH]1)C12CC3CC(CC(C3)C1)C2	> 1250 nM	581 nM	> 10000 nM

Structure (SMILES)	EC50 (Plasmodium falciparum [1])	EC50 (Plasmodium falciparum [2])	CC50 [3]
CC(C)(C)CC(=O)N1CCC[C@@H]2CN(C(=O)CCOc3ccccc3)CC[C@@H]21	> 1250 nM	> 874 nM	> 10000 nM
O=C(Nc1ccc2nc3n(c(=O)c2c1)CCCCC3)C(=O)N1CCN(c2cccc(Cl)c2)CC1	1810 nM	250 nM	> 100000 nM
O=C(c1cccc(F)c1)N1CCN(Cc2ccncc2)CC1	> 9940 nM	2170 nM	> 100000 nM
Oc1c(C(Nc2ccccn2)c2cccc(Cl)c2Cl)ccc2cccnc12 (stereo not given)	174 nM	132 nM	> 100000 nM
COc1ccccc1CNC(=O)CCn1c(=O)[nH]c2ccccc2c1=O	537 nM	133 nM	> 10000 nM
OCCNc1nc(Nc2ccc(Cl)c(Cl)c2)nc2ccccc12	140 nM	154 nM	9400 nM
N#CC(=CC=Cc1ccc([N+](=O)[O-])o1)c1nc2ccccc2[nH]1	381 nM	387 nM	8690 nM
Fc1ccc(CSc2nc3cccnc3[nH]2)cc1	3620 nM	4800 nM	> 100000 nM
CCOc1ccc(NC(=O)C(C)CSc2nc3ccc(NC(=O)CC)cc3s2)cc1 (stereo not given)	> 12500 nM	1480 nM	> 100000 nM
Cc1ccccc1Cn1c(C)c[n+]2ccsc12	1280 nM	113 nM	> 10000 nM
CCCCCc1ccc(C(=O)N(C)CCCNc2ccnc3cc(Cl)ccc23)cc1	250 nM	310 nM	15100 nM
CCOC(=O)c1cnc2ccc(OCC)cc2c1NCCN(CC)CC	832 nM	> 988 nM	> 10000 nM
Cc1cc([N+](=O)[O-])ccc1-c1ccc(C(=O)Nc2ccc(-c3nc4ccccc4[nH]3)cc2)o1	2790 nM	> 12500 nM	> 100000 nM
c1ccc2c(c1)CSc1sccc1C2=C1CCNCC1	88 nM	4410 nM	13000 nM
CC1CN(C(=O)C(Cc2c[nH]c3ccccc23)NC(=O)C(c2ccccc2)c2ccccc2)CCN1C(=O)NCc1ccccc1 (stereo not given)	> 1250 nM	> 391 nM	> 10000 nM
O=C1NC(=S)NC1=Cc1cccc(Oc2ccccc2)c1	> 6890 nM	1940 nM	> 100000 nM
O=C(NCCc1ccccc1)c1cnc(NCCCN2CCCC2)nc1NCC1CCCCC1	603 nM	> 42.5 nM	> 10000 nM
Cc1ccc(CNC(=O)c2cc(=O)[nH]c3ccc(S(=O)(=O)N4CCOCC4)cc23)cc1	1430 nM	> 1090 nM	> 10000 nM
CCN(CC)CCNc1ccc(Nc2ccnc3cc4ccccc4cc23)cc1	28.2 nM	41.7 nM	2360 nM
CCCN(CCC)CCCNc1ccc(C(=O)Nc2cccc(OC)c2)cc1[N+](=O)[O-]	159 nM	320 nM	24000 nM
COc1cccc(CCNC(=O)c2ccc(OC3CCN(CC(c4ccccc4)c4ccccc4)CC3)c(OC)c2)c1	1070 nM	84.5 nM	> 10000 nM
CC(C)(C)c1ccc(C(=O)Nc2ccc(NC(=O)c3ccc(-c4cccc([N+](=O)[O-])c4)o3)cc2)cc1	> 1460 nM	> 429 nM	> 10000 nM

Structure (SMILES)	EC50 (Plasmodium falciparum [1])	EC50 (Plasmodium falciparum [2])	CC50 [3]
Cc1ccc(C)c(Oc2c(C(F)(F)F)oc3c(CN4CCN(C)CC4)c(O)ccc3c2=O)c1	832 nM	185 nM	> 100000 nM
CCN(CC)CCCC(C)N=c1cc(C=Cc2ccc([N+](=O)[O-])cc2)[nH]c2ccc(OC)cc12 (stereo not given)	20.9 nM	14 nM	11700 nM
O=C1c2cccc(N3CCCC(C(=O)N4CCCCC4c4cccnc4)C3)c2C(=O)N1Cc1ccc(C(F)(F)F)cc1 (stereo not given)	3410 nM	1530 nM	> 100000 nM
COc1ccc(OC)c(-c2ccc(O)c(CNCCc3ccccc3F)c2)c1	1140 nM	790 nM	> 10000 nM
O=C(c1cccs1)N1CCN(c2ccc([N+](=O)[O-])c(NC3CC3)c2)CC1	2090 nM	1370 nM	> 100000 nM
Cn1c(=O)n(Cc2ccccc2)c(=O)c2c1nc(SCC(=O)Nc1ccccc1)n2Cc1ccccc1	1850 nM	362 nM	> 100000 nM
Cc1nc2ccccc2c(=O)n1NC(=O)c1cccc([N+](=O)[O-])c1	141 nM	1610 nM	> 100000 nM
COc1ccc(S(=O)(=O)ON=C2C=C(C(C)C)C(=O)C=C2C)cc1	834 nM	296 nM	18300 nM
CCN(CC)CCCN(Cc1cc2cc(OC)ccc2[nH]c1=O)C(=S)Nc1ccc(C)cc1	3410 nM	2020 nM	33000 nM
CN(CCCNc1ccnc2cc(Cl)ccc12)C(=O)c1ccc(Cl)c([N+](=O)[O-])c1	137 nM	226 nM	> 7920 nM
c1ccc(N=Nc2nnc(Nc3ccccc3)s2)cc1	957 nM	884 nM	> 10000 nM
O=C(Nc1ccc(-c2nc3ccc(-c4nc5ccc(NC(=O)c6ccccc6[N+](=O)[O-])cc5[nH]4)cc3[nH]2)cc1)c1ccccc1[N+](=O)[O-]	> 1250 nM	987 nM	> 10000 nM
CCC(c1nc2ccccc2c(=O)n1-c1ccc(F)cc1)N(CCc1ccccc1)C(=O)COc1ccccc1 (stereo not given)	1030 nM	1140 nM	> 10000 nM
Cc1nc(-c2ccc[n+](C)c2)sc1C(=O)/C=C/c1ccc(Cl)cc1	283 nM	200 nM	> 10000 nM
CN(C)/C=C1\Oc2ccccc2N=C1Cl	153 nM	132 nM	> 10000 nM
CCCCNC(=O)C(c1cccc(OC)c1)N1C(=O)c2cc(OCCCC)ccc2NC(=O)C1CO (stereo not given)	205 nM	168 nM	> 2370 nM
O=C(NNC(=S)NCc1ccco1)C(F)(F)F	> 12500 nM	3170 nM	> 100000 nM
Cc1cccn2c(=O)c3cc(C(=O)NCc4ccco4)c(=N)n(CCc4ccccc4)c3nc12	388 nM	865 nM	> 100000 nM
Cc1c2oc3c(C)ccc(C(=O)NC4C(=O)N[C@@H](C(C)C)C(=O)N5CCCC5C(=O)N(C)CC(=O)N(C)C(C(C)C)C(=O)OC4C)c3nc-2c(C(=O)NC2C(=O)N[C@H](C(C)C)C(=O)N3CCCC3C(=O)N(C)CC(=O)N(C)C(C(C)C)C(=O)OC2C)c(N)c1=O (stereo not given in full) (I: [ξT]V[ξP][Sar][ξNMeV] / II: [ξT][dV][ξP][Sar][ξNMeV]; ester I:1-I:C, II:1-II:C; linker I:N-II:N via Actinocin(9to1))	25.9 nM	20.7 nM	296 nM
COc1ccccc1-n1c(C(C)N(C)C(=O)Nc2ccccc2F)nc2ccccc2c1=O (stereo not given)	162 nM	62.3 nM	> 12400 nM
Cc1nc(-c2ccncc2)nc(NCCNc2ccc(C(F)(F)F)cn2)c1Cl	714 nM	> 1250 nM	> 10000 nM
